Molecules are shown by their SMILES. pIC50: −log10 of the molar value. ≈ marks a conversion by molar mass, not a printed value.

This is an account of results in patent US5602146A, “4-iminoquinolines, processes for their preparation, and their use” (Hoechst Aktiengesellschaft, priority 1992, dated 1997).

For one assay, the system named is HIV. Description: Testing of preparations against HIV in a cell culture (T-Cell culture assay). In kind it is cell-based. The note with it: Human immunodeficiency virus 1, 72 h; HIV-infected lymphocytes, 37° C. for 3 days; lowest concentration at which no giant cells occurred; read-out: T-Cell culture assay Minimum inhibitory concentration. The procedure:
Testing of preparations against HIV in a cell culture
Description of the method
The complete medium additionally contains 20% of fetal calf serum and 40 IU/ml of recombinant interleukin 2. Cells:
Lymphocytes isolated from fresh donor blood by means of Ficol® gradient centrifugation are cultured, with addition of […] of phytohemagglutinin (Wellcome) in the complete medium at 37° C. under 5% of CO2 for 36 hours. After addition of 10% of dimethyl sulfoxide, the cells are frozen at a cell density of 5×10^6 and stored in liquid nitrogen. For the experiment, the cells are thawed, washed in RPMI medium and cultured in the complete medium for 3-4 days.
The test preparations were dissolved in dimethyl sulfoxide in a concentration of 16.7 mg/ml and diluted to 1 mg/ml in complete medium.
0.4 ml of medium was initially introduced into 24-well multiwell dishes. After addition of 0.1 ml of the dissolved preparation into the upper row of the dish, a geometric dilution series was produced by transferring in each case 0.1 ml. Preparation-free controls always contained 0.4 ml of complete medium with 0.5% of dimethyl sulfoxide.
Lymphocyte cultures having a cell count of 5×10^5 cells/ml were infected by addition of 1/50 of the volume of supernatant from HIV-infected lymphocyte cultures. The titer of these culture supernatants was determined by end point dilution with 1-5×10^6 infectious units/ml. After incubation at 37° C. for 30 minutes, the infected lymphocytes were centrifuged off and taken up again in the same volume of medium. In each case 0.6 ml of this cell suspension was introduced into each of the depression walls of the test plate. The batches were incubated at 37° C. for 3 days.
The infected cell cultures were examined under the microscope for the presence of giant cells, which indicate active multiplication of the virus in the culture. The lowest concentration of preparation at which no giant cells occurred was determined as the inhibitory concentration against HIV. As a control, the supernatants from the culture plates were investigated for the presence of the HIV antigen with the aid of an HIV antigen test in accordance with the manufacturer's information (Organon).

The target in assay [1] is T1, HIV "Reverse Transcriptase" (Human immunodeficiency virus type 1 group M subtype B, UniProt P04585).
T1 construct: purchased HT-Biotechnology Ltd., Cambridge, UK; host or cells: E. coli
As to the kind of experiment: Inhibition of HIV "Reverse Transcriptase" (Scintillation Proximity Assay). In kind it is biochemical. The note with it: RT-SPA, RT from HIV cloned in E. coli, 60 minutes (37° C.). How it is done:
Investigation of the substances for inhibition of HIV "Reverse Transcriptase"
The activity of reverse transcriptase (RT) was determined with the aid of a "Scintillation Proximity Assay" (SPA). The reagent kit for the RT-SPA was obtained from Amersham/Buchler (Braunschweig). The enzyme RT (from HIV cloned in E. coli) originated from HT-Biotechnology Ltd., Cambridge, UK.
The test was carried out in accordance with the method manual of the manufacturer Amersham--with the following modifications:
bovine serum albumin was added to the "assay" buffer to the final concentration of 0.5 mg/ml.
the test was carried out in Eppendorf reaction vessels with a batch volume of […].
the RT concentrate of the manufacturer (5000 U/ml) was diluted to an activity of 15 U/ml in tris-HCl buffer 20 mM; pH 7.2; 30% of glycerol.
the incubation time for the batches was 60 minutes (37° C.).
after the reaction had been stopped and after "development" with the bead suspension, […] of the batch were transferred to 4.5 ml of tris-HCl buffer, 10 mM; pH 7.4; 0.15M NaCl, and the tritium activity was measured in a β-counter.
Testing of the substances:
For a preliminary test of the inhibitor activity, the substances were dissolved in dimethyl sulfoxide (stock solution c=1 mg/ml) and tested in a dilution in dimethyl sulfoxide of 10^-1, 10^-2, 10^-3 and the like to determine IC50 values, the inhibitor stock solutions were further diluted in tris-HCl buffer, 50 mM, pH 8 and tested in suitable concentrations. The concentration associated with 50% enzyme inhibition was determined from the graph of RT activity against Log Cinh.

Take `CC(C)ON=C1c2cc(Cl)ccc2NC(=S)C1(C)C` [Example 7, anti-6-Chloro-3,3-dimethyl-4-(isopropyloxyimino)-l,3-dihydroquinoline-2-thione]: the MIC in the assay on HIV came out at 0.008 µg/mL (≈ 0.027 µM). For the same molecule, the pIC50 – broadly, the negative decadic logarithm of the IC50, by convention in mol/L – in assay [1] is 7.69.
For `CCC(C)ON=C1c2cc(Cl)ccc2NC(=S)C1(C)C` (stereo not drawn) [Example 67], in that order: 0.04 µg/mL (≈ 0.129 µM) and 6.49 to 7.49.
For `CSCCON=C1c2cc(Cl)ccc2NC(=S)C1(C)C` [Example 50] the same measures were 0.2 µg/mL (≈ 0.608 µM) and 6.52 to 7.52.
